{"source": "patent US8338475B2", "about": "“Anti-proliferative pharmaceutical composition” (BioCis Pharma Oy, priority 2003, dated 2012)", "key": {"A2058 tumours": {"tested_on": "A2058 tumours", "experiment": "Haematoxylin/eosin staining of tumour sections (necrosis)", "assay_type": "in vivo, SCID/SCID mice", "conditions": "tumours collected after 16 days; 30 mM cis-UCA, 1 μM CPT intratumoural", "from_the_text": "After 16 days from the first injection, all the animals were sacrificed with CO2, and the tumours were collected and fixed in formalin for further studies. In groups A, C, and D, one mouse was sacrificed before the end of the experiment because of poor development of the tumour (no measurable tumour at day 0). One animal in group B was sacrificed prematurely after it had severly scratched the tumour. Data from these animals were not included in the calculation of the tumour size results. All the removed animals were female mice. Immunohistochemical data was obtained also from the removed mice except from group B. The experiments were conducted under a protocol approved by the local ethics committee.\nParaffin sections of the tumours were stained with haematoxylin/eosin following standard procedures for an overall picture. Ki67 was stained to detect the amount of proliferating cells. The staining procedure for the Ki67 primary antibody (Dako, Klostrup, Denmark) at 1:50 dilution and secondary antibody (StreptABComplex/HRP Duet Mouse/Rabbit, Dako) at 1:100 dilution followed the instructions provided by the manufacturer. Two sections from each tumour was examined."}, "[1]": {"tested_on": "HK293 (kidney epithelial cells)", "experiment": "Proliferation assay (CellTiter 96), HK293 cells", "assay_type": "cell-based, human", "conditions": "pH 6.5, 44 h, cis-UCA 10 mM, CPT 2 μM, 15,000 cells per 100 μl", "from_the_text": "(§1) Transformed tumour cell lines WM 266-4 and A2058 (cutaneous melanoma), HT-1080 (epithelial fibrosarcoma), HeLa (epithelial adenocarcinoma of cervix), HK293 (kidney epithelial cells) and non-transformed cell line HSF (skin fibroblast from a healthy volunteer donor) of human origin have been described earlier (Li et al. 2003). The K562 (chronic myelogenous leukemia) cells were purchased from American Type Culture Collection.\n(§2) The cells were maintained in logarithmic growth phase in IMDM medium (Invitrogen, Paisley, UK) supplemented with 10% fetal calf serum and antibiotics in a humidified incubator at +37° C., 5% CO2. The adherent cells lines were harvested for experiments with 0.25% trypsin-EDTA in PBS for 5 min and then resuspended and washed in medium. After counting of viable cells, 15,000 to 75,000 cells were transferred into flat-bottom 96-well cell culture plates in a volume of 100 or 150 μl.\nThe proliferation activity of cultured cell lines was quantified in flat-bottom 96-well plates with a modified colorimetric assay based on a tetrazolium derivative (CellTiter 96 Aqueous One Solution Cell Proliferation Assay, Promega). The cells were cultured in the presence of camptothecin and/or cis-UCA for 20 to 92 h, then the proliferation reagent was added for 2 h, and the absorbance at 490 nm was measured in a plate reader. […]"}, "[2]": {"tested_on": "WM 266-4 (cutaneous melanoma)", "experiment": "Proliferation assay (CellTiter 96), WM266-4 cells", "assay_type": "cell-based, human", "protocol": "The cells were cultured in triplicate with or without 2 μM camptothecin (CPT) or 10 mM cis-UCA in a density of 15,000 cells per […]. A, Cells taken from normal pH 7.4 cultures to test conditions at pH 6.5. B, Cells cultured in low pH 6.7 adaptation medium for 3 d, then tested at pH 6.5. C, Cells cultured and tested at pH 7.4.\nas §1, §2\nThe proliferation activity of cultured cell lines was quantified in flat-bottom 96-well plates with a modified colorimetric assay based on a tetrazolium derivative (CellTiter 96 Aqueous One Solution Cell Proliferation Assay, Promega). The cells were cultured in the presence of camptothecin and/or cis-UCA for 20 to 92 h, then the proliferation reagent was added for 2 h, and the absorbance at 490 nm was measured in a plate reader. Blank absorption values in wells containing medium without cells were subtracted before comparison analysis.\nThe cell lines were tested in a 44-h culture at pH 6.5 with or without 2 μM camptothecin and 10 mM cis-UCA at 15,000 cells per 100 μl total volume. […] In order to further characterise the effective anti-proliferative concentration range of cis-UCA, proliferation was measured in a 44-h assay at pH 6.5 with cis-UCA concentration ranging from 30 μM to 30 mM."}, "A2058 cells": {"tested_on": "A2058 cells", "experiment": "Monitoring of intracellular pH (BCECF, flow cytometry), A2058 cells", "assay_type": "cell-based, human", "protocol": "The cells were labelled with BCECF and placed in pH-adjusted buffer solutions with or without various concentrations of cis-UCA. Left panels, calibration of BCECF fluorescence intensity of nigericin-treated cells in high-potassium buffer as a function of buffer pH. Right panels, intracellular pH values in buffers with or without various concentrations of cis-UCA. All test buffers were adjusted to pH 7.4 (%) or pH 6.5 (+) after the addition of cis-UCA. Results were calculated using the corresponding calibration curve on the left.\nIntracellular pH in the cell lines in the presence of cis-UCA was measured with the pH-sensitive fluorescent dye 2′,7′-bis-(2-carboxyethyl)-5-(and-6)-carboxyfluorescein (BCECF, acetoxymethyl ester; Molecular Probes, Leiden, The Netherlands) by flow cytometry. Two million cells were incubated in 5 ml DMEM medium (Invitrogen), pH 7.4, containing 0.35 μM BCECF at 37° C. for 30 min, washed once in sodium phosphate buffer (50 mM NaH2PO4/Na2HPO4, 43 mM NaCl), pH 7.4, and resuspended in 0.3 ml saline. Twenty μl of the cell suspension was pipetted into flow cytometry tubes. […]\nCalibration of intracellular pH in situ was performed using the K^+/H^+ ionophore nigericin (Molecular Probes) in high-potassium buffers. […] Exact intracellular pH values were calculated from mean BCECF fluorescence intensities by reference with nigericin-clamped calibration cells. […]"}}}
{"compound": "O=C(O)/C=C\\c1c[nH]cn1", "note": "[cis-UCA, cis-urocanic acid]", "values": [{"measurement": "Necrosis (histological sections with haematoxylin/eosin staining)", "setting": "A2058 tumours", "result": "Dead cells and large necrotic areas were detected and yes"}, {"measurement": "Inhibition of proliferation (mean percentage inhibition ± SD compared with untreated control)", "setting": "[1]", "result": "22 ± 0.1", "unit": "%"}, {"measurement": "percentage inhibition of proliferation", "setting": "[2]; 10 mM cis-UCA alone, cells from pH 7.4 cultures tested at pH 6.5, 92 h (FIG. 2A)", "result": 36, "unit": "%"}, {"measurement": "percentage inhibition of proliferation", "setting": "[2]; 10 mM cis-UCA, cells adapted to pH 6.7 for 3 days, tested at pH 6.5, 92 h (FIG. 2B)", "result": 28, "unit": "%"}, {"measurement": "Inhibition of proliferation (mean percentage inhibition ± SD compared with untreated control)", "setting": "[2]; pH 6.5, 44 h, cis-UCA 10 mM, CPT 2 μM, 15,000 cells per 100 μl", "result": "20 ± 0.6", "unit": "%"}, {"measurement": "decrease of intracellular pH", "setting": "A2058 cells; extracellular pH 6.5, highest cis-UCA concentration (30 mM)", "result": "about 0.25 pH units"}, {"measurement": "intracellular pH with escalating concentrations", "setting": "A2058 cells; extracellular pH 7.4, cis-UCA up to 30 mM", "result": "remained almost constant"}]}
